Laboratory results taken from patent US8309073B2, “Combination of probiotics” (Valio Ltd., priority 2001, dated 2012).
“Also recorded” adds a separate entry of the source.

What was measured:
[1] = Viability in pH-adjusted MRS broths; format: physicochemical; conditions: for Cell content pH 2: MRS broth adjusted with lactic acid to pH 2, 37° C.; for Cell content pH 2 / Cell content pH 3 / Cell content pH 4: 3 hours; for Cell content pH 3: MRS broth adjusted with lactic acid to pH 3, 37° C.; for Cell content pH 4: MRS broth adjusted with lactic acid to pH 4, 37° C.; for Initial content: before cultivation in pH-adjusted MRS broth
Method: The strains were tested at different pH values in MRS broths the pH of which had been adjusted with lactic acid to values pH 4, pH 3 and pH 2. The strain to be studied (fresh culture) was inoculated into a pH broth of 1% and grown at 37° C. for 3 hours, after which the content of live cells was determined using an agar suitable for the strain (see Table 5). The strains maintained their viability in the 3-hour process in a pH value of 3 excellently. […] In the test the bacteria were not protected by components carried by food (such as fat) and therefore they may be assumed to preserve even better when consumed in vivo together with food.

intestinal mucus [2] = assay: Adhesion of the probiotic strains to intestinal mucus; format: binding; conditions: for Adhesion % (+Std.): adhesion to intestinal mucus
Method: Adhesion of the probiotic strains to mucus was tested in accordance with Ouweland et al. (Ouwehand, A. C., Kirjavainen, P. V., Grönlund, M. -M., Isolauri, E., and Salminen, S. J. 1999. Adhesion of probiotic micro-organisms to intestinal mucus. Int. Dairy J. 9:623-630). LGG and probionic bacterium PJS adhered excellently to the intestinal mucus, Bbi99 moderately and LC705 weakly. Adhesion is a prerequisite for the microbe to produce beneficial effects in the intestines. On the other hand, LC705 is known to adhere well to epithet cells, similarly as LGG (Lehto, E. and Salminen S. 1997. Adhesion of two lactobacillus strains, one lactococcus strain and one propionibacterium strain to cultured human intestinal CaCO-2 cell lines. Bioscience Microflora 16: 13-17). This property is beneficial when there is an imbalance in the intestine and the protective mucus has been weakened.

[3] = Bile salt tolerance in MRS broths with Oxgal bile salt; format: physicochemical; conditions: for Cell content Bile salt 0.3%: MRS broth with 0.3% Oxgal bile salt; for Cell content Bile salt 0.3% / Cell content Bile salt 0.5%: 3 hours, 37° C.; for Cell content Bile salt 0.5%: MRS broth with 0.5% Oxgal bile salt; for Initial content: before cultivation in bile salt MRS broth
Method: With regard to bile salt tolerance, the strains were tested in MRS broths that contained 0.3% and 0.5% of Oxgal (Sigma) bile salt by inoculating 1% of the fresh culture into the bile salt MRS broth to be studied. The strains were cultivated in the broths for 3 hours at 37° C., after which the content of live cells was determined using an agar suitable for the strain (see Table 5). All strains survived the treatment excellently.

[4] = prior-art description of the strain; cited from earlier work
intestinal mucus [5] = conditions: prior-art description of the strain; cited from earlier work
[6] = tested on: cultured human intestinal CaCO-2 cell lines; conditions: literature / prior-art description; cited from earlier work

Row | Substance | Cell content pH 2 [1] | Cell content pH 3 [1] | Cell content pH 4 [1] | Initial content [1] | adhesion to the intestinal mucus (intestinal mucus [2]) | Adhesion % (+Std.) (intestinal mucus [2]) [%] | Cell content Bile salt 0.3% [3] | Cell content Bile salt 0.5% [3] | Initial content [3] | viability in low pH values and high bile acid contents [4] | adhesion to mucus (strain description) (intestinal mucus [5]) | adhesion to epithelial cells [6] | viability in pH 2 ([1]; pH 2, 3 hours)
1 | Bifidobacterium infantis Bbi99 (DSM 13692) | <10 cfu/ml | <10 cfu/ml | 2 × 10^7 cfu/ml | 1 × 10^7 cfu/ml | moderately | 4.6 ± 2.3 | 1 × 10^7 cfu/ml | 1 × 10^7 cfu/ml | 3 × 10^7 cfu/ml | – | – | – | –
2 | Lactobacillus rhamnosus GG (ATCC 53103) [LGG] | <10^2 cfu/ml | 1 × 10^7 cfu/ml | 2 × 10^7 cfu/ml | 1 × 10^7 cfu/ml | excellently | 26.3 ± 1.3 | 2 × 10^7 cfu/ml | 9 × 10^6 cfu/ml | 1 × 10^7 cfu/ml | survives even lower pH values as well as high bile acid contents | excellent | excellent; also recorded: adhere well | –
3 | Lactobacillus rhamnosus LC705 (DSM 7061) | <10^2 cfu/ml | 4 × 10^7 cfu/ml | 2 × 10^8 cfu/ml | 6 × 10^7 cfu/ml | weakly | 0.7 ± 0.2 | 2 × 10^7 cfu/ml | 1 × 10^7 cfu/ml | 1 × 10^7 cfu/ml | good | weakly | moderately; also recorded: adhere well | –
4 | Propionibacterium freudenreichii ssp. shermanii JS (DSM 7067) [PJS] | 1 × 10^4 cfu/ml | 3 × 10^7 cfu/ml | 9 × 10^7 cfu/ml | 1 × 10^8 cfu/ml | excellently | 24.9 ± 2.2 | 6 × 10^7 cfu/ml | 5 × 10^7 cfu/ml | 6 × 10^7 cfu/ml | excellent | – | – | remained viable
